Where a name gives a salt, the structure may show the parent alone.
What was measured:
[1] = Storage stability, chemical purity by HPLC; type: physicochemical; details: conclusion from the stability studies
Method: (§1) To determine concentration, solutions were diluted in methanol; to determine purity, 2.7 mg material was dissolved in 1 mL methanol. The conditions listed below were then used. • Instrument: Agilent 1100 • Column: Waters Symmetry C18 5μ 150×3.9 mm column • Column Temperature: 25° C. • Autosampler Temperature: Not controlled • UV wavelength: 254 nm • Injection Volume: 3 μL • Flow Rate: 1.2 mL/min • Mobile Phase A: 0.01% formic acid in water • Mobile Phase B: 0.01% formic acid in ACN • Gradient program: […]
In order to assess physical and chemical stability, Ponatinib HCl crystal form 1 obtained by direct crystallization according to example 4, and the crystalline ponatinib HCl Form 1 which was obtained via Form 8 according to example 7, were stored at 25° C./60%RH and 40° C./75% RH. After 1 week, the three samples were analysed by XRPD and HPLC (chemical purity).

[2] = Aqueous solubility by HPLC analysis; type: physicochemical; details: water, thermodynamic from solid
Method: as §1
A filtered solution of ponatinib HCl in acetonitrile/water (1:1) was allowed to slowly evaporate at ambient temperature. A hydrated crystal form 8 showing characteristic peaks at 6.21 and 10.5 2Theta was found. Approximately 11.4% water content was found by KF analysis. […] (peak at 90° C.).
A filtered solution of ponatinib HCl in acetone/water (1:1) was allowed to slowly evaporate. A hydrated crystal form 8 showing characteristic peaks at 6.21 and 10.5 2Theta was found. Approximately 11.4% water content was found by KF analysis. […] (peak at 90° C.).
Ponatinib HCl form 1 was slurried in water for 24 h at 22° C. A hydrated crystal form 8 showing characteristic peaks at 6.21 and 10.5 2Theta was found. Approximately 11.4% water content was found by KF analysis. […] (peak at 90° C.).

| Structure (SMILES) | chemical stability compared with form 1 obtained by direct crystallization [1] | solubility [2] [µg/mL] |
| --- | --- | --- |
| Cc1ccc(C(=O)Nc2ccc(CN3CCN(C)CC3)c(C(F)(F)F)c2)cc1C#Cc1cnc2cccnn12 [Form 1 via form 8, ponatinib hydrochloride] | higher chemical stability |  |
| Cc1ccc(C(=O)Nc2ccc(CN3CCN(C)CC3)c(C(F)(F)F)c2)cc1C#Cc1cnc2cccnn12 [Form 8, ponatinib hydrochloride] |  | 620 |

— patent US9725454B2, “Crystalline forms of ponatinib hydrochloride” (SANDOZ AG, priority 2013, dated 2017)
